From article PMC12656565, “In Vitro and Ultrastructural Evaluation of the Cytotoxic and Antileishmanial Activities of Thiosemicarbazone Compounds Against Promastigotes and Axenic Amastigotes of Leishmania infantum” (Tropical Medicine and Infectious Disease, 2025)

Experiments:
[1] = system: J774 macrophages and Vero cells; parameters: method as in ref [21] Aliança et al.; conditions: ref [21] Aliança et al.; cited from earlier work
peritoneal macrophages = system: peritoneal macrophages; parameters: method as in ref [23] Queiroz et al.; conditions: ref [23] Queiroz et al.; cited from earlier work
J774.A1 macrophages = experiment: Cytokine dosage (CBA) in supernatants of uninfected macrophages; format: cell-based, Mouse; conditions: 1× and 2× CC50, 72 h
Experimental: J774.A1 macrophage lineage cells were cultured in 96-well polystyrene plates containing DMEM medium supplemented with 10% FBS. Cells were incubated with the following concentrations: 1× CC50 and 2× CC50 of compounds LT-73 and LT-75 and amphotericin B, as well as 1% DMSO diluent solution as control, for 72 h. The cells used in these assays were not infected with Leishmania infantum, allowing the evaluation of cytokine modulation and cytotoxicity in uninfected macrophages. After cultivation, 100 µL of culture supernatants were collected and immediately stored at −20 °C for later use in CBA assays (Cytometric Bead Array-BD Biosciences, BD Biosciences, San Jose, CA, USA). This assay utilized a mixture of […] polystyrene beads with different fluorescence intensities, coated with specific antibodies for quantification of cytokines IFN-γ, TNF, IL-10, IL-6, IL-4, IL-2, and IL-17a present in sample supernatants. Cytokine levels were quantified using the BD Cytometric Bead Array (CBA) Mouse Th1/Th2/Th17 kit (Cat. No. 560485, BD Biosciences, San Jose, CA, USA) and analyzed on a BD FACSCalibur™ Flow Cytometer with BD CellQuest PRO Software (BD Biosciences; version 5.1 by the facility). Results are expressed in pg/mL based on standard curves provided by the manufacturer.

Structure (SMILES)	cytotoxicity [1] [µM]	cytotoxicity (peritoneal macrophages) [µM]	IFN-γ production (J774.A1 macrophages)	IL-6 secretion (J774.A1 macrophages)
C[C@@H]1[C@H](O)[C@@H](C)/C=C/C=C/C=C/C=C/C=C/C=C/C=C/[C@H](O[C@@H]2O[C@H](C)[C@@H](O)[C@H](N)[C@@H]2O)C[C@@H]2O[C@](O)(C[C@@H](O)C[C@@H](O)[C@H](O)CC[C@@H](O)C[C@@H](O)CC(=O)O[C@H]1C)C[C@H](O)[C@H]2C(=O)O [Amphotericin B, reference compound]	74.7	74.86		
S=C(N/N=C/c1c[nH]c2ncccc12)Nc1ccccc1 [LT-73]			no cytokine production was observed	IL-6 production was observed only at the CC50 concentration
N#Cc1ccc2[nH]cc(/C=N/NC(=S)Nc3ccc(Cl)cc3)c2c1 [LT-75]			induced the production of the cytokine IFN-γ	discrete elevation detected at 1× LT-75
